One experiment concerns the target CB1 receptors (Rattus norvegicus, UniProt P20272). In words: Radioreceptor binding, [3H]-CP-55,940 displacement, rat brain membranes. More on the design: from tissue; host or cells: whole animal (rat), central CB1 receptors of the hypothalamus. To be noted: 1 nM [3H]-CP55,940. The source says:
The receptorial binding technique allows indeed to establish if and with what affinity and specificity a determined compound binds itself to a particular receptor. To evaluate the affinity of a determined compound towards a particular receptor, a particular preparation of the tissue wherein the receptors are present is used and the tested compound is made to compete with another compound, treated so as to make it radioactive and of which the affinity for the receptor is known. […] The reading of the radioactivity present in the receptor-compound complex allows furthermore to precisely calculate the compound amount bound to the receptor. By this method it is therefore possible to rapidely identify the affinity of a new compound towards a specific receptor and thus to make predictions on its pharmacological activity. By repeating the same experimental scheme it is possible to evaluate the affinity of the compound towards other kinds of receptors and thus establish the specificity degree.
Food and water were available ad libitum.
The animals were sacrificed by cervical dislocation, the brain in toto (cerebellum excluded) and the spleen were rapidely dissected and maintained in ice.
The tissue was homogenized in 15 volumes (weight/volume) of TME buffer (50 mM Tris, 1 mM EDTA e 3 mM MgCl2, pH 7.4) by an Ultra-Turrax and centrifuged for 10 minutes at 1086×g in a centrifuge cooled at 4° C. The resulting supernatant was centrifuged at 45,000×g for 30 min at 4° C. by using a Beckman SW41 rotor and the final pellet was resuspended in 50 volumes of TME.
The obtained membranes (50-80 μg of proteins) were incubated in the presence of 1 nM di [^3H]-CP55,940 for 1 h at 30° C. in a final volume of 0.5 ml of TME buffer containing 5 mg/ml of bovine serum albumin (BSA). The non specific binding was measured in the presence of CP55,940 at the 1 μM concentration. […]
The radioactivity present in the filters was measured by a scintillator spectrophotometer (Tricarb 2100, Packard, Meridien, USA). […]

The subject of the next experiment is rat intestinal motility. The experiment in a line: Intestinal motility, Upper Gut Transit Test. In kind it is in vivo. As to conditions: for antagonism of the constipating effect of the CB1 agonist WIN 55,212-2 / effect on the intestinal transit rate / intestinal portion run by the marker relative to the length run after physiological solution with Tween 80: i.p.; for intestinal portion run by the marker relative to the length run after physiological solution with Tween 80: compound alone. The procedure:
To further evaluate the activity in vivo of the compounds (I) object of the present invention, functional tests were carried out to evaluate the effect of said compounds on the rat intestinal motility. It was indeed shown the involvement of the cannabinoidergic CB1 receptors in the intestinal motility regulation in rat (R. G. Pertwee et al; Br. J. Pharmacol.; 1996, 118, 2199-2205). In particular, the CB1 receptor agonists slacken the gastrointestinal motility; antagonist compounds of the same receptors have instead a prokinetic effect on the gastrointestinal transit (G. Colombo et al.; Eur. J. Pharmacol.; 1998, 344, 67-69; M. A. Casu et al.; Eur. J. Pharmacol.; 2003, 459, 97-105).
The evaluation of the constipating or prokinetic effect of the compounds was carried out by the Upper Gut Transit Test method on the basis of the procedure defined and ratified by Y. Nagakura et al.; Eur. J. Pharmacol.; 1996, 311, 67-72. The method, which allows to measure the motility of the stomach and of the first intestine tract (small or little intestine), implies: • the administration of the compound to be tested by i.p. route; • the administration of carmine red (marker not directly absorbable from the stomach) by intragastric route through a metal probe, after 20 minutes from the administration of the compound to be tested; • the rat sacrifice by cervical dislocation after a pre-fixed time (30 minutes) starting from the administration time; • the intestine explant from pylorus to the ileo-cecal valve; • the determination of the intestinal part crossed by the marker; • the data processing to determine the percentage of crossed part with respect to the total length of the small intestine.
With respect to the control (physiological solution or carrier wherein the compounds to be tested were solubilized or dispersed), the administration of CB1 agonist compounds implies a reduction of the intestinal transit percentage; an opposite effect is noticed in case of antagonist compounds. The latter are therefore capable to cancel the constipating effect of CB1 agonist compounds.
Each test was repeated on ten animals; the results reported in the Examples are the average of the results obtained with ten animals.

Entries after “also recorded” stand apart in the source; their conditions may differ.

One may read the Ki as a measure of affinity in units of concentration, obtained from inhibition or displacement. The low end stands for a stronger hold on the target, the high end for a looser hold on the target.

CB1 receptors, sequence (P20272 whole entry): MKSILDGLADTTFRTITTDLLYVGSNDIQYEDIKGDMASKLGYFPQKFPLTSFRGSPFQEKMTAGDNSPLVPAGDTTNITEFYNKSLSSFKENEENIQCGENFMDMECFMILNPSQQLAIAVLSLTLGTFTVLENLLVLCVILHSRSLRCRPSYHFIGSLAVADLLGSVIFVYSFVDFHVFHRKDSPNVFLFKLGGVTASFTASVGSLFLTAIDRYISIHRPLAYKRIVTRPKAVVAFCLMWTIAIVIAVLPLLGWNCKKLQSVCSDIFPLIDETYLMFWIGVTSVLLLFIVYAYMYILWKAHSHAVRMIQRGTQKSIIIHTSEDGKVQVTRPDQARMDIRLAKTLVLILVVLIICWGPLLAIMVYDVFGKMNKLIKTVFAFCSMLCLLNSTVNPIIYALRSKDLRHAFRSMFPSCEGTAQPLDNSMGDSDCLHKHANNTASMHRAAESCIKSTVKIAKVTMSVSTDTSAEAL

Consider `Cc1c(C(=O)NN2CCCCC2)nn(-c2ccc(Cl)cc2Cl)c1-c1ccc(Cl)s1` [Example 3.1b, N-piperidinyl-5-(5-Chloro-thiophen-2-yl)-1-(2′,4′-dichloro-phenyl)-4-methyl-1H-pyrazol-3-carboxamide], for which the Ki on CB1 receptors worked out at 0.035 ± 0.0025 µM. In addition, the “length run by the marker relative to physiological solution, WIN 55,212-2 preceded by the compound” value in the experiment with rat intestinal motility (WIN 55,212-2 0.5 mg/kg preceded by compound 1.0 mg/kg) is given as “the same length”. For the same compound, the “antagonism of the constipating effect of the CB1 agonist WIN 55,212-2” value with rat intestinal motility is “capable to antagonize the effect of a CB1 agonist; also recorded: capable to antagonize the constipating effect of the CB1 agonist WIN 55,212-2”. The “effect on the intestinal transit rate” value in the experiment on rat intestinal motility is “increase the intestinal transit rate”. Further, the “intestinal portion run by the marker relative to the length run after physiological solution with Tween 80” value with rat intestinal motility (0.5 mg of compound/kg) is given as 1.57 times; in the experiment with rat intestinal motility (1.0 mg of compound/kg), 1.76 times.
The compound “N-pyrrolidinyl-5-(5-Chloro-thiophen-2-yl)-1-(2,4′-dichloro-phenyl)-4-methyl-1H-pyrazol-3-carboxamide [Example 3.1d]” came in with an inhibition constant (Ki) at CB1 receptors of 0.063 ± 0.0072 µM. The “length run by the marker relative to physiological solution, WIN 55,212-2 preceded by the compound” value in the experiment with rat intestinal motility (WIN 55,212-2 0.5 mg/kg preceded by compound 0.5 mg/kg) is recorded as “the same length”. Moreover, in the experiment on rat intestinal motility, the “antagonism of the constipating effect of the CB1 agonist WIN 55,212-2” value is “capable to antagonize the effect of a CB1 agonist” and the “effect on the intestinal transit rate” value was “increase the intestinal transit rate”. Moreover, the “intestinal portion run by the marker relative to the length run after physiological solution with Tween 80” value with rat intestinal motility (0.5 mg of compound/kg) was found to be 1.61 times. For the same compound, the “intestinal portion run by the marker relative to the length run after physiological solution with Tween 80” value with rat intestinal motility (1.0 mg of compound/kg) is 1.74 times.
